Columns and labels:
[1] = system: T1, C118 (GST-C118), alpha-L-rhamnosidase; assay: p-nitrophenol release, Michaelis-Menten fit; type: biochemical, Bifidobacterium sp.; details: pH 6.0, 45 °C; pNPR 0.1-5.0 mM; enzyme 0.62 mg/mL
T1 construct: E. coli BL21(DE3); GH78 subfamily II; EC 3.2.1.40; predicted catalytic residues Glu478, Asp472, also W541, W600, L597, W532
Source text: p-nitrophenol release, Michaelis-Menten fit on C118 (GST-C118), alpha-L-rhamnosidase

BD890 (Bd890, BdRham) = target: T2, BD890 (Bd890, BdRham) (Bifidobacterium dentium, UniProt D2Q797); assay: conversion of Re to Rg1 in PPT-type ginsenoside mixture; type: biochemical; details: cell lysate, 45 °C, Re 2.25 mg/mL in ginsenoside mixture
T2 construct: gene BDP_0161; GST-tag vector pBT7 (same expression system as C118), E. coli BL21(DE3), used as cell lysate; GH78
T2 sequence (D2Q797 1-890): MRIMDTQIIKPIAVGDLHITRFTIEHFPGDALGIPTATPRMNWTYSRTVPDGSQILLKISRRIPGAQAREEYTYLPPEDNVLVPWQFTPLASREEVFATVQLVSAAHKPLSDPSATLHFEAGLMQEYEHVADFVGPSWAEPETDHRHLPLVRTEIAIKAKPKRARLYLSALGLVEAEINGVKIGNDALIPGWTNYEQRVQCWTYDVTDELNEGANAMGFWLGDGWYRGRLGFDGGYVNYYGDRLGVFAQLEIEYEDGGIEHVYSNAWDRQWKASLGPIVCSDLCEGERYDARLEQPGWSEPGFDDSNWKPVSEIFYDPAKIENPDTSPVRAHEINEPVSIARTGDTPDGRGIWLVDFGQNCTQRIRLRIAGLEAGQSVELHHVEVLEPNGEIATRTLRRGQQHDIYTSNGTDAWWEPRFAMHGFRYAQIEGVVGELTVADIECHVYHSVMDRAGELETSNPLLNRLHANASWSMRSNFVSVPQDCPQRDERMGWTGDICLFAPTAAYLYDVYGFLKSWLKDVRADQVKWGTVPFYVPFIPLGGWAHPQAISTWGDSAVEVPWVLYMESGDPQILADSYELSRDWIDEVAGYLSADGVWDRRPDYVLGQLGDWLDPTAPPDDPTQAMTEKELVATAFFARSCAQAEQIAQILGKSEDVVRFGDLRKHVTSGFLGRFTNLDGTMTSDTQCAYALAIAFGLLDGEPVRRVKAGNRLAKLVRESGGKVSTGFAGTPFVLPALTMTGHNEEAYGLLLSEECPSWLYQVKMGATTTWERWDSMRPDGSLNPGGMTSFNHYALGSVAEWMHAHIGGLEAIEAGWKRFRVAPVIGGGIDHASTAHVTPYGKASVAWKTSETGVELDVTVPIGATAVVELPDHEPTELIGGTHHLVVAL

[2] = system: T1, C118 (GST-C118), alpha-L-rhamnosidase; assay: product (Rg1) quantified, Michaelis-Menten fit; type: biochemical, Bifidobacterium sp.; details: pH 6.0, 45 °C; Re 0.25-10.0 mg/mL; enzyme 0.62 mg/mL
Source text: product (Rg1) quantified, Michaelis-Menten fit on C118 (GST-C118), alpha-L-rhamnosidase

| Km [1] [µM] | SMILES | % conversion after 12 h (BD890 (Bd890, BdRham)) [%] | Km [2] [µM] |
| --- | --- | --- | --- |
| 2030 | C[C@@H]1O[C@@H](Oc2ccc([N+](=O)[O-])cc2)[C@H](O)[C@H](O)[C@H]1O [p-nitrophenyl-α-L-rhamnopyranoside] |  |  |
|  | CC(C)=CCC[C@](C)(O[C@@H]1O[C@H](CO)[C@@H](O)[C@H](O)[C@H]1O)[C@H]1CC[C@]2(C)[C@@H]1[C@H](O)C[C@@H]1[C@@]3(C)CC[C@H](O)C(C)(C)[C@@H]3[C@@H](O[C@@H]3O[C@H](CO)[C@@H](O)[C@H](O)[C@H]3O[C@@H]3O[C@@H](C)[C@H](O)[C@@H](O)[C@H]3O)C[C@]12C [Ginsenoside Re] | 54 | 544 |

From PMC11673932, “A Novel Ginsenoside-Transforming α-L-Rhamnosidase from Bifidobacterium: Screening, Characterization and Application” (Biomolecules, 2024)
